{"source": "patent US20200069775A1", "about": "“BRAIN OSTEOCALCIN RECEPTOR AND COGNITIVE DISORDERS” (The Trustees of Columbia University in the City of New York, priority 2017, published 2020)", "key": {"Osteocalcin−/− mice": {"system": "Osteocalcin−/− mice", "test": "Intracerebro-ventricular (ICV) infusion in Osteocalcin−/− mice, behavioral tests", "type": "in vivo, mouse", "method": "Osteocalcin−/−, Gprc6a−/−, Osteocalcin-mCherry, and Osteocalcin foxed mice have been previously described (Ducy et al., 1996, Nature 382:448-452; Oury et al., 2011, Cell 144:796-809). Mouse genotypes were determined by PCR. For all experiments, controls were littermate female WT, Cre-expressing, or flox/flox. All mice were maintained on a pure 129-Sv genetic background except for the inducible deletion Osteocalcin model (mix background: 25% C57/BL6 and 75% 129sv). For inducible gene deletion mice, tamoxifen was prepared in corn oil and injected intraperitoneally (IP) (1 mg/20g of body weight) over one week. For osteocalcin delivery to pregnant mice, IP injections (240 ng/day) were performed as soon as a plug was present daily until delivery (E0.5-E18.5). For osteocalcin or leptin infusion in adult Osteocalcin−/− or ob/ob mice, pumps (Alzet micro-osmotic pump, Model 1002) delivering osteocalcin (300 ng/hr), leptin (50 ng/hr), or vehicle were surgically installed subcutaneously in the backs of 3-month old mice. […] Leptin and osteocalcin content in sera and tissues were determined by ELISA.\nTail suspension testing was performed as previously described (Mayorga et al., 2001, J. Pharmacology Exper. Therapeutics 298:1101-1107; Stem et al., 1985, Psychopharmacology 85:367-370). […] The parameter recorded was the number of seconds spent immobile. Mice were scored by a highly trained observer, over a 5 min period, blind to the genotype of the mice.\nAnxiety and locomotor activity of mice were measured using the open field test (David et al., 2009, Neuron 62:479-493). […] Mice were monitored throughout each test session by video tracking and analyzed using Matlab software. […] The overall motor activity was quantified as the total distance travelled. The anxiety was quantified measuring the number of rearings and the time and distance spent in the center versus periphery of the open field chamber (in %).\nEach mouse was allowed to explore the apparatus for 5 min. Global activity was assessed by measuring the number of entries […] (David et al, 2009, Neuron 62:479-493). […]"}, "3 month-old WT mice": {"system": "3 month-old WT mice", "test": "Alendronate treatment with or without osteocalcin, MWMT and NOR", "type": "in vivo, mouse", "conditions": "peripheral delivery of osteocalcin, 60 ng/hr by osmotic pump", "method": "For plasma injection experiments, 100 μl of plasma were injected 8 times during 24 days, via tail vein. Each group described is represented individually in each panel. For osteocalcin delivery in WT mice, pumps (Alzet micro-osmotic pump, Model 1002) delivering osteocalcin (30 ng/hr for 12 month-old and 90 ng/hr for 16 month-old mice), or vehicle, were surgically installed subcutaneously in the back of mice. […] Control mice receiving vehicle or mice receiving alendronate were implanted with osmotic pumps delivering vehicle only.\nMorris water maze test: Animals are transported to the testing room in their home cages, and left undisturbed for at least 30 minutes prior to the first trial. The maze is comprised of a large swimming pool (150cm diameter) filled with water (23° C.) made opaque with non-toxic white paint. The pool is located in a brightly lit room filled with visual cues, including geometric figures on the walls of the maze demarking the four fixed starting positions of the trials, at (12:00, 3:00, 6:00 and 9:00). A 15 cm round platform is hidden 1 cm beneath the surface of the water at a fixed position. Each daily trial block consisted of four swimming trials, with each mouse starting from the same randomly chosen starting position. The starting position is varied between days. On day 1, mice that fail to find the platform within 2 min are guided to the platform. They must remain on the platform for 15 s before they are returned to their home cage. Mice are not guided to the platform after day 1, and the time it takes them to reach the platform over repeated trials ([…] for the next 10 days) is recorded as a measure of spatial learning.\nNovel object recognition test (NOR): The NOR paradigm assesses the rodent's ability to recognize a novel object in the environment. The NOR task will be conducted, as previously described7, in an opaque plastic box using 2 different objects: (1) a clear plastic funnel (diameter 8.5 cm, maximal height 8.5 cm) and (2) a black plastic box (9.5 cm^3). These objects elicit equal levels of exploration as determined in pilot experiments (Denny, C. A., et al., 2012, Hippocampus 22:1188-1201; Oury, F., et al., 2013, Cell 155:228-241). The NOR paradigm consists of 3 exposures over the course of 3 days. On day 1, the habituation phase, mice are given 5 minutes to explore the empty arena, without any objects. On day 2, the familiarization phase, mice are given 10 minutes to explore 2 identical objects, placed at opposite ends of the box. On day 3, the test phase, mice are given 15 minutes to explore 2 objects, one novel object and a copy of the object from the familiarization phase. The object that serves as the novel object (either the funnel or the box) as well as the left/right starting position of the objects are counterbalanced within each group. Mice are placed in the center of the arena at the start of each exposure. […] Preference for the novel object is assessed based on the fraction of time that a mouse spends exploring the novel object compared to the familiar object. Exploration is scored from video recordings of each exposure and recorded using the Stopwatch program. […]\nStreptavidin were added for 30 minutes at room temperature followed by PBS washes. […] For hormonal measurement; circulating levels of the carboxylated, undercarboxylated or uncarboxylated forms of osteocalcin were measured by ELISA. CTX content in serum (ng/ml) were measured with specific ELISAs (RatLaps™ (CTX-I) EIA (Immunodiagnosticsystems)."}}, "data": [{"substance": "osteocalcin: Recombinant osteocalcin bacterially produced, cleaved from the GST subunit; completely undercarboxylated at all three sites; full-length mouse osteocalcin (YLGASVPSPDPLEPTREQCELNPACDELSDQYGLKTAYKRIYGITI)", "values": [{"measurement": "anxiety and depression features", "setting": "Osteocalcin−/− mice; Osteocalcin−/− mice, ICV 10 ng/hour, week-long treatment", "result": "corrected the anxiety and depression features"}, {"measurement": "leakage of centrally delivered hormone into the general circulation (osteocalcin in blood)", "setting": "Osteocalcin−/− mice; Osteocalcin−/− mice, ICV infusion", "result": "no leakage"}, {"measurement": "defects in anxiety, depression, learning, and memory", "setting": "Osteocalcin−/− mice; direct administration to the brains of adult Osteocalcin−/− mice", "result": "rescued defects in anxiety, depression, learning, and memory"}, {"measurement": "behavioral abnormalities (MWMT, NOR) of alendronate-treated mice", "setting": "3 month-old WT mice", "result": "corrected"}]}]}
